Test results as given in patent US7812116B2, “Immunogenic peptides” (Rush University Medical Center, priority 2003, dated 2010).

Legend:
HLA-A2.1 = HLA-A2.1 (Homo sapiens, UniProt P04439, D140Y/D185E/D98H/E176V/E277Q/G131W/G231S/I119V/I121R/I166T/I218V/L300P/L318F/N151K/N90K/P208A/P217A/Q86G/Q94H/R138H/R169H/T345S); assay: Peptide/HLA-A2.1 complex stability on T2 cells under Brefeldin A treatment; format: binding
dendritic cells = assay: Phenotypic analysis of mature dendritic (mDC) and T2 antigen-presenting cells; format: cell-based, human; details: DCs from CD14+ monocytes, maturation factor during last three days of culture
Method: Immature DCs can be generated according to modified protocols of Romani N, et al., J Exp Med 180, pp. 83-89, 1994; and Bakker et al., Cancer Res 55, pp. 5330-5334, 1995. Briefly, fresh or frozen/thawed CD14+cells are cultured in RPMI 1640 medium (Gibco-Life Technologies, Gaithersburg, Md.) supplemented with 10% FCS, 1,000 U/ml GM-CSF and 1,000 U/ml IL-4. The cell cultures are fed with fresh medium and GM-CSF and IL-4 every other day and cell differentiation is monitored by light microscopy. On day 7, the cultures are supplemented with different combinations of DC maturation factors such as lipopolysaccharide (100 U/ml), TNF-α (10 ng/ml), or IFN-α (1,000 U/ml) plus TNF-α (10 ng/ml). After three days of incubation, mature DCs (mDC) are harvested and their phenotypes are evaluated by flow cytometry. The maturation factor(s) yielding optimal DC maturation are determined and used to generate mDCs for peptide pulsing in upcoming studies. In this example, immature DCs obtained by the culture of CD14+monocytes with GM-CSF (1,000 U/ml) and IL-4 (1,000 U/ml) are induced to undergo maturation by incubation with LPS (100 Units/ml), TNF-α (10 ng/ml) or TNF-α (10 ng/ml)+IFN-γ (50 ng/ml) during the final three days of the culture period. […] HLA-DR and no expression of CD3 or CD14 (data not shown). The highest up-regulation of the co-immunostimulatory (CD80 and CD86) and HLA-A2.1 MHC class I molecules is detected on DCs treated with TNF-α+IFN-γ (Table 5). […] The phenotype of the T2 cell line is evaluated to determine its potential for use as an alternative type of antigen presenting cell. […] The expression of CD80 is higher on T2 cells compared to mDCs.

LLFLTPMEV (listed as Homo sapiens) [SEQ ID NO: 3, CD19 9-mer fragment]
HLA-A2.1 binding and stability in words (HLA-A2.1): good and prolonged stable binding

SLFLGILSV (listed as Homo sapiens) [SEQ ID NO: 6, CD20 9-mer fragment]
HLA-A2.1 binding and stability in words (HLA-A2.1): good and prolonged stable binding

TLAYLIFCL (listed as Homo sapiens) [SEQ ID NO: 2, CD19 9-mer fragment]
HLA-A2.1 binding and stability in words (HLA-A2.1): good and prolonged stable binding

TNF-α
CD80 mean channel fluorescence (MCF) (dendritic cells): 107
CD86 mean channel fluorescence (MCF) (dendritic cells): 96
HLA-A2.1 mean channel fluorescence (MCF) (dendritic cells): 475

lipopolysaccharide [LPS, reference compound]
CD80 mean channel fluorescence (MCF) (dendritic cells): 71
CD86 mean channel fluorescence (MCF) (dendritic cells): 40
HLA-A2.1 mean channel fluorescence (MCF) (dendritic cells): 316
